Experimental data reported in ChEMBL document CHEMBL3045771, “Structure-Activity Relationships of Enantiomers of the Azole Fungicide Ipconazole and Its Related Compounds” (1998).
In brackets after ≈: the same amount, converted by molar mass.

Assays:
Assay type in all cases: functional
[1] = test system: Cucumis sativus; test: Inhibition of Cucumis sativus (cucumber) growth assessed as stem length of first leaf of seedlings measured as growth rate at 125 ug/ml for 24 hr relative to control; design: scale not given: the % may be the effect or the level left
[2] = test system: Triticum aestivum; test: Inhibition of Triticum aestivum (wheat) Nourin 64 growth assessed as first leaf sheath length of seedlings measured as growth rate at 125 ug/ml for 24 hr relative to control; design: scale not given: the % may be the effect or the level left
[3] = test system: Rhizoctonia solani; test: Antifungal activity against Rhizoctonia solani on potato sucrose agar medium at 28 or 20 degC for 2 or 3 days
[4] = test system: Sclerotinia sclerotiorum; test: Antifungal activity against Sclerotinia sclerotiorum on potato sucrose agar medium at 28 or 20 degC for 2 or 3 days
[5] = test system: Pyricularia oryzae; test: Antifungal activity against Magnaporthe oryzae on potato sucrose agar medium at 28 or 20 degC for 2 or 3 days
[6] = test system: Colletotrichum gloeosporioides; test: Antifungal activity against Glomerella cingulata on potato sucrose agar medium at 28 or 20 degC for 2 or 3 days
[7] = test system: Monilinia fructicola; test: Antifungal activity against Monilinia fructicola on potato sucrose agar medium at 28 or 20 degC for 2 or 3 days
[8] = test system: Fusarium fujikuroi; test: Antifungal activity against Fusarium fujikuroi on potato sucrose agar medium at 28 or 20 degC for 2 or 3 days
[9] = test system: Fusarium oxysporum f. sp. cucumerinum; test: Antifungal activity against Fusarium oxysporum f. sp. cucumerinum on potato sucrose agar medium at 28 or 20 degC for 2 or 3 days
[10] = test system: Alternaria mali; test: Antifungal activity against Alternaria mali on potato sucrose agar medium at 28 or 20 degC for 2 or 3 days
[11] = test system: Botrytis cinerea; test: Antifungal activity against Botryotinia fuckeliana on potato sucrose agar medium at 28 or 20 degC for 2 or 3 days
[12] = test system: Cercospora beticola; test: Antifungal activity against Cercospora beticola on potato sucrose agar medium at 28 or 20 degC for 2 or 3 days
[13] = test system: Bipolaris oryzae; test: Antifungal activity against Bipolaris oryzae on potato sucrose agar medium at 28 or 20 degC for 2 or 3 days
[14] = test system: Colletotrichum lagenaria; test: Antifungal activity against Colletotrichum lagenaria on potato sucrose agar medium at 28 or 20 degC for 2 or 3 days

| SMILES | Activity [1] [%] | Activity [2] [%] | MIC [3] [µg/mL] | MIC [4] [µg/mL] | MIC [5] [µg/mL] | MIC [6] [µg/mL] | MIC [7] [µg/mL] | MIC [8] [µg/mL] | MIC [9] [µg/mL] | MIC [10] [µg/mL] | MIC [11] [µg/mL] | MIC [12] [µg/mL] | MIC [13] [µg/mL] | MIC [14] [µg/mL] |
| --- | --- | --- | --- | --- | --- | --- | --- | --- | --- | --- | --- | --- | --- | --- |
| CCC[C@H]1CC[C@@H](Cc2ccc(Cl)cc2)[C@]1(O)Cn1cncn1 | 104 | 97 | 100 (≈ 300 µM) | > 100 | 50 (≈ 150 µM) | > 100 | 13 (≈ 38.9 µM) | > 100 | > 100 | > 100 | 50 (≈ 150 µM) | > 100 | 100 (≈ 300 µM) | > 100 |
| C[C@@H]1CC[C@H](Cc2ccc(Cl)cc2)[C@@]1(O)Cn1cncn1 | 43 | 38 | > 100 | 3.1 (≈ 10.1 µM) | 3.1 (≈ 10.1 µM) | 13 (≈ 42.5 µM) | < 0.2 | 3.1 (≈ 10.1 µM) | > 100 | > 100 | 3.1 (≈ 10.1 µM) | > 100 | 25 (≈ 81.8 µM) | 100 (≈ 327 µM) |
| CC[C@H]1CC[C@@H](Cc2ccc(Cl)cc2)[C@]1(O)Cn1cncn1 | 98 | 77 | 100 (≈ 313 µM) | 100 (≈ 313 µM) | 25 (≈ 78.2 µM) | 25 (≈ 78.2 µM) | 1.6 (≈ 5 µM) | > 100 | > 100 | > 100 | 25 (≈ 78.2 µM) | > 100 | 50 (≈ 156 µM) | 50 (≈ 156 µM) |
| C[C@H]1CC[C@@H](Cc2ccc(Cl)cc2)[C@]1(O)Cn1cncn1 | 97 | 92 | > 100 | > 100 | 50 (≈ 164 µM) | > 100 | 13 (≈ 42.5 µM) | > 100 | > 100 | > 100 | 100 (≈ 327 µM) | > 100 | > 100 | > 100 |
| CCC[C@@H]1CC[C@H](Cc2ccc(Cl)cc2)[C@@]1(O)Cn1cncn1 | 110 | 102 | 100 (≈ 300 µM) | 3.1 (≈ 9.29 µM) | 6.3 (≈ 18.9 µM) | 3.1 (≈ 9.29 µM) | 0.4 (≈ 1.2 µM) | 1.6 (≈ 4.79 µM) | 6.3 (≈ 18.9 µM) | > 100 | 1.6 (≈ 4.79 µM) | 100 (≈ 300 µM) | 25 (≈ 74.9 µM) | 50 (≈ 150 µM) |
| CC[C@H]1CC[C@H](Cc2ccc(Cl)cc2)[C@@]1(O)Cn1cncn1 | 123 | 100 | 50 (≈ 156 µM) | < 0.2 | 1.6 (≈ 5 µM) | < 0.2 | < 0.2 | < 0.2 | 1.6 (≈ 5 µM) | 1.6 (≈ 5 µM) | < 0.2 | 1.6 (≈ 5 µM) | 6.3 (≈ 19.7 µM) | 3.1 (≈ 9.69 µM) |
| O[C@@]1(Cn2cncn2)CCC[C@H]1Cc1ccc(Cl)cc1 | 90 | 94 | > 100 | > 100 | 100 (≈ 343 µM) | > 100 | 13 (≈ 44.6 µM) | > 100 | > 100 | > 100 | > 100 | > 100 | > 100 | > 100 |
| CC[C@@H]1CC[C@@H](Cc2ccc(Cl)cc2)[C@]1(O)Cn1cncn1 | 110 | 69 | 100 (≈ 313 µM) | 25 (≈ 78.2 µM) | 13 (≈ 40.6 µM) | 13 (≈ 40.6 µM) | 0.4 (≈ 1.25 µM) | 25 (≈ 78.2 µM) | > 100 | 100 (≈ 313 µM) | 13 (≈ 40.6 µM) | 50 (≈ 156 µM) | 25 (≈ 78.2 µM) | 100 (≈ 313 µM) |
| CC(C)[C@@H]1CC[C@@H](Cc2ccc(Cl)cc2)[C@]1(O)Cn1cncn1 | 104 | 92 | > 100 | > 100 | 13 (≈ 38.9 µM) | 25 (≈ 74.9 µM) | < 0.2 | > 100 | > 100 | > 100 | 25 (≈ 74.9 µM) | > 100 | 50 (≈ 150 µM) | 50 (≈ 150 µM) |
| CC(C)C[C@H]1CC[C@@H](Cc2ccc(Cl)cc2)[C@]1(O)Cn1cncn1 | 104 | 115 | > 100 | > 100 | 100 (≈ 287 µM) | > 100 | > 100 | > 100 | > 100 | > 100 | > 100 | > 100 | > 100 | > 100 |
| CC(C)C[C@@H]1CC[C@H](Cc2ccc(Cl)cc2)[C@@]1(O)Cn1cncn1 | 109 | 112 | > 100 | 3.1 (≈ 8.91 µM) | 6.3 (≈ 18.1 µM) | 3.1 (≈ 8.91 µM) | 3.1 (≈ 8.91 µM) | 3.1 (≈ 8.91 µM) | > 100 | > 100 | 1.6 (≈ 4.6 µM) | > 100 | 50 (≈ 144 µM) | 100 (≈ 287 µM) |
| CC(C)[C@@H]1CC[C@H](Cc2ccc(Cl)cc2)[C@@]1(O)Cn1cncn1 | 118 | 105 | 13 (≈ 38.9 µM) | < 0.2 | 3.1 (≈ 9.29 µM) | 1.6 (≈ 4.79 µM) | < 0.2 | 0.2 (≈ 0.599 µM) | 3.1 (≈ 9.29 µM) | 6.3 (≈ 18.9 µM) | 0.2 (≈ 0.599 µM) | 25 (≈ 74.9 µM) | 13 (≈ 38.9 µM) | 0.8 (≈ 2.4 µM) |
| CC[C@@H]1CC[C@H](Cc2ccc(Cl)cc2)[C@@]1(O)Cn1cncn1 | 100 | 104 | 100 (≈ 313 µM) | 0.8 (≈ 2.5 µM) | 3.1 (≈ 9.69 µM) | 0.4 (≈ 1.25 µM) | < 0.2 | < 0.2 | 6.3 (≈ 19.7 µM) | 25 (≈ 78.2 µM) | 0.8 (≈ 2.5 µM) | 50 (≈ 156 µM) | 25 (≈ 78.2 µM) | 1.6 (≈ 5 µM) |
| CCCC[C@@H]1CC[C@H](Cc2ccc(Cl)cc2)[C@@]1(O)Cn1cncn1 | 121 | 98 | 100 (≈ 287 µM) | 3.1 (≈ 8.91 µM) | 6.3 (≈ 18.1 µM) | 6.3 (≈ 18.1 µM) | 6.3 (≈ 18.1 µM) | 3.1 (≈ 8.91 µM) | 50 (≈ 144 µM) | > 100 | 3.1 (≈ 8.91 µM) | > 100 | 25 (≈ 71.9 µM) | > 100 |
| CC(C)[C@H]1CC[C@H](Cc2ccc(Cl)cc2)[C@@]1(O)Cn1cncn1 | 113 | 96 | 100 (≈ 300 µM) | 0.8 (≈ 2.4 µM) | 1.6 (≈ 4.79 µM) | 0.4 (≈ 1.2 µM) | < 0.2 | 0.2 (≈ 0.599 µM) | 0.4 (≈ 1.2 µM) | 3.1 (≈ 9.29 µM) | 0.4 (≈ 1.2 µM) | 13 (≈ 38.9 µM) | 13 (≈ 38.9 µM) | < 0.2 |
| CCCC[C@H]1CC[C@@H](Cc2ccc(Cl)cc2)[C@]1(O)Cn1cncn1 | 117 | 112 | 100 (≈ 287 µM) | > 100 | 25 (≈ 71.9 µM) | > 100 | 50 (≈ 144 µM) | > 100 | > 100 | > 100 | > 100 | > 100 | > 100 | > 100 |
| CC(C)[C@H]1CC[C@@H](Cc2ccc(Cl)cc2)[C@]1(O)Cn1cncn1 | 117 | 109 | 100 (≈ 300 µM) | 50 (≈ 150 µM) | 100 (≈ 300 µM) | 25 (≈ 74.9 µM) | < 0.2 | > 100 | > 100 | > 100 | 25 (≈ 74.9 µM) | > 100 | 50 (≈ 150 µM) | > 100 |
| O[C@]1(Cn2cncn2)CCC[C@@H]1Cc1ccc(Cl)cc1 | 80 | 41 | > 100 | 13 (≈ 44.6 µM) | 6.3 (≈ 21.6 µM) | 25 (≈ 85.7 µM) | < 0.2 | 13 (≈ 44.6 µM) | > 100 | > 100 | 3.1 (≈ 10.6 µM) | > 100 | 25 (≈ 85.7 µM) | > 100 |
